Results on seven molecules are retold here after ChEMBL document CHEMBL1201862, “PubChem BioAssay data set” (2004).

The structures appear in SMILES notation.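 Interpolation was linear, between the two tested concentrations surrounding the appropriate level; five concentrations were tested over 48 hours in 96-well plates. The concentration for 50% growth inhibition is given as GI50.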 The source made the active and inactive calls. Rule as the data show it: active = GI50 up to about 1.1 µM and inactive = higher. Bounds are passed on as bounds.

Test systems include 786-0; A498; CCRF-CEM; HCC 2998; HCT-116; HL-60; HOP-92; M14; NCI-H522; OVCAR-4; OVCAR-5; PC-3; RPMI-8226; SF-539; SK-MEL-2; SK-MEL-5; SR; SW-620; U-251; UO-31.
What all share (assay): growth of human tumour cells (NCI), 48 h

For `CC(C)C(=O)/C=C/c1ccc(Cl)cc1Cl`, the GI50 with 786-0 was 14.2 µM (inactive); in the experiment with A498, 17.9 µM (inactive); in the experiment on CCRF-CEM, 5.09 µM (inactive); in the experiment with HCC 2998 it was 16.4 µM (inactive); in the experiment on HCT-116 it was 2.65 µM (inactive); in the experiment with HL-60 it was 7.05 µM (inactive). Further, the GI50 in the experiment on HOP-92 was 16.8 µM (inactive); in the experiment with M14, 8.28 µM (inactive); with NCI-H522, 10.8 µM (inactive); in the experiment with OVCAR-4 it was 6.75 µM (inactive); with OVCAR-5, 16.9 µM (inactive); with PC-3, 18.7 µM (inactive). Besides, the GI50 in the experiment with RPMI-8226 is > 100 µM (inactive); with SF-539 it was 18.4 µM (inactive); in the experiment on SK-MEL-2, 14.2 µM (inactive); with SK-MEL-5, 14.5 µM (inactive); in the experiment on SR, 6.61 µM (inactive); with SW-620, 3.1 µM (inactive). Moreover, the results for the GI50 in the experiment with U-251 and with UO-31 were 12.6 µM (inactive) and 11.4 µM (inactive), respectively.
`CN(C)/C=N/S(=O)(=O)c1nn2c(C=O)c(-c3ccc(-c4ccccc4)cc3)nc2s1`: the GI50 was 0.927 µM (active) in the experiment on 786-0; 21.3 µM (inactive) in the experiment with A498; 0.145 µM (active) in the experiment on CCRF-CEM; 6 µM (inactive) in the experiment on HCC 2998; 1 µM (active) with HCT-116; 0.141 µM (active) in the experiment with HL-60. Further, the GI50 with HOP-92 was 2.65 µM (inactive); in the experiment on M14 it was 0.904 µM (active); in the experiment with NCI-H522, 0.385 µM (active); with OVCAR-4 it was 1.96 µM (inactive); in the experiment with OVCAR-5, 6.89 µM (inactive); in the experiment with PC-3, 2 µM (inactive). Also, the GI50 in the experiment on RPMI-8226 is 0.83 µM (active); in the experiment on SF-539, 2.54 µM (inactive); with SK-MEL-2, 2.69 µM (inactive); with SK-MEL-5 it was 1.61 µM (inactive); with SR, 0.49 µM (active); in the experiment with SW-620, 0.724 µM (active). For the same molecule, the GI50 in the experiment with U-251 is 2.01 µM (inactive); in the experiment with UO-31, 1.4 µM (inactive).
On to `CCCC1=C(OC)C(=O)c2c(C)cc(Cl)nc2C1=O`, for which the GI50 in the experiment with 786-0 is 2.37 µM (inactive); with A498, 20.2 µM (inactive); in the experiment with CCRF-CEM, 0.286 µM (active); in the experiment on HCC 2998, 7.62 µM (inactive); in the experiment on HCT-116, 2.62 µM (inactive); with HL-60, 1.45 µM (inactive). The GI50 in the experiment on HOP-92 was 5.79 µM (inactive); in the experiment on M14, 7 µM (inactive); with NCI-H522, 2.43 µM (inactive); in the experiment with OVCAR-4 it was 6.37 µM (inactive); with OVCAR-5, 14.5 µM (inactive); in the experiment with PC-3 it was 9.08 µM (inactive). For the same molecule, the GI50 in the experiment with RPMI-8226 was 2.16 µM (inactive); with SF-539, 7.43 µM (inactive); in the experiment with SK-MEL-2, 10.5 µM (inactive); in the experiment on SK-MEL-5, 4.06 µM (inactive); in the experiment on SR, 2.11 µM (inactive); in the experiment on SW-620, 3.24 µM (inactive). For the same molecule, the GI50 is 6.07 µM (inactive) in the experiment on U-251 and 13.5 µM (inactive) in the experiment on UO-31.
Regarding `CC(=O)/C(=C\Nc1c(C)n(C)n(C)c1=O)C(=O)c1ccccc1`, the GI50 in the experiment with 786-0, in the experiment with A498, in the experiment on CCRF-CEM, in the experiment on HCC 2998, in the experiment with HCT-116 and in the experiment with HL-60 was > 50 µM (inactive) in each case. The GI50 in the experiment with HOP-92 was 26.5 µM (inactive); in the experiment on M14 it was > 50 µM (inactive); in the experiment on NCI-H522, > 50 µM (inactive); in the experiment with OVCAR-4, > 50 µM (inactive); in the experiment on OVCAR-5 it was > 50 µM (inactive); in the experiment with PC-3, > 50 µM (inactive). Further, the GI50 in the experiment with RPMI-8226, in the experiment with SF-539, in the experiment on SK-MEL-2, in the experiment on SK-MEL-5, in the experiment on SR and with SW-620 was > 50 µM (inactive) each time. The GI50 with U-251 and in the experiment with UO-31 was > 50 µM (inactive) each time.
On to `C=C(CCC(=O)N(CCc1c[nH]c2ccccc12)C(=O)c1ccccc1CSCC)C(=O)OC`, for which the GI50 with 786-0 was 50 µM (inactive); with A498, 49.2 µM (inactive); in the experiment with CCRF-CEM, 5.4 µM (inactive); in the experiment on HCC 2998, 43.7 µM (inactive); with HCT-116 it was 7.19 µM (inactive); with HL-60, 3.46 µM (inactive). For the same molecule, the GI50 was 40.6 µM (inactive) in the experiment with HOP-92; 44.6 µM (inactive) in the experiment on M14; 23.6 µM (inactive) in the experiment with NCI-H522; 50 µM (inactive) in the experiment with OVCAR-4; > 100 µM (inactive) in the experiment on OVCAR-5; 23.2 µM (inactive) in the experiment on PC-3. The GI50 is 7.59 µM (inactive) in the experiment on RPMI-8226; > 88.5 µM (inactive) in the experiment on SF-539; 48.6 µM (inactive) in the experiment with SK-MEL-2; 23.4 µM (inactive) in the experiment with SK-MEL-5; > 100 µM (inactive) with SR; 49.9 µM (inactive) in the experiment with SW-620. Further, the GI50 is 10.3 µM (inactive) in the experiment with U-251 and 27.7 µM (inactive) with UO-31.
As for `O=c1[nH]c2nccn2c(Cl)c1Br`, the GI50 with 786-0 is 86.9 µM (inactive); in the experiment on A498 it was 76 µM (inactive); in the experiment with CCRF-CEM it was 20.5 µM (inactive); in the experiment with HCC 2998 it was 21.1 µM (inactive); with HCT-116, 32.5 µM (inactive); in the experiment with HL-60, 17.2 µM (inactive). Besides, the GI50 in the experiment with HOP-92 is 24.7 µM (inactive); in the experiment on M14, 16.8 µM (inactive); with NCI-H522, 14.6 µM (inactive); in the experiment with OVCAR-4, 18 µM (inactive); with OVCAR-5, 23.4 µM (inactive); in the experiment with PC-3, 50.2 µM (inactive). For the same molecule, the GI50 in the experiment on RPMI-8226 is 54.3 µM (inactive); in the experiment with SF-539, > 100 µM (inactive); with SK-MEL-2 it was 2.52 µM (inactive); with SK-MEL-5, 25.2 µM (inactive); in the experiment with SR, 22.4 µM (inactive); with SW-620, 26.6 µM (inactive). Also, the GI50 with U-251 was 17.3 µM (inactive); in the experiment on UO-31, 60 µM (inactive).
As to `O=[N+]([O-])c1c(F)c(F)c2c(c1F)Nc1ccccc1S2`, the GI50 in the experiment on 786-0 was 8.24 µM (inactive); with A498, 16.4 µM (inactive); in the experiment with CCRF-CEM it was 2.69 µM (inactive); in the experiment with HCC 2998, 2.76 µM (inactive); in the experiment on HCT-116 it was 2.47 µM (inactive); with HL-60 it was 4.29 µM (inactive). The GI50 in the experiment with HOP-92 was 15.2 µM (inactive); in the experiment with M14, 3.64 µM (inactive); in the experiment with NCI-H522 it was 4.68 µM (inactive); with OVCAR-4 it was 2.58 µM (inactive); in the experiment on OVCAR-5, 13 µM (inactive); in the experiment with PC-3, 9.16 µM (inactive). The GI50 in the experiment on RPMI-8226 is 4.7 µM (inactive); in the experiment on SF-539, 20.6 µM (inactive); in the experiment on SK-MEL-2, 2.14 µM (inactive); in the experiment on SK-MEL-5, 11.6 µM (inactive); in the experiment on SR it was 2.62 µM (inactive); with SW-620, 2.77 µM (inactive). The values for the GI50 with U-251 and in the experiment on UO-31 were 2.05 µM (inactive) and 18.2 µM (inactive), respectively.
